# Test results: patent US20040023806A1 (priority 1999, published 2004)
# Assays:
# Phytophthora infestans = assay type: in vivo; details: tomato plants sprayed with 0.02% active substance, infected 24 hours later, assessed 5 days after infection
# Venturia inaequalis = assay: Residual protective activity against Venturia inaequalis in apples; assay type: in vivo; details: apple seedlings sprayed with 0.02% active substance, infected 24 hours later, assessed 12 days after infection
# Method: Apple seedlings with fresh shoots 10 to 20 cm long are sprayed to runoff with an aqueous spray liquor (0.02% active substance) prepared from a wettable powder of the active substance and 24 hours later are infected with a conidia suspension of the fungus. The plants are incubated at from 90 to 100 percent relative atmospheric humidity for 5 days and placed in a greenhouse at from 20 to 24° C. for […]. Fungal infestation is assessed 12 days after infection.
# Aphis craccivora = assay: Activity against Aphis craccivora; assay type: in vivo; details: pea seedlings, spray liquor 100 ppm active substance, 20° C., 3 and 6 days later
# Method: Pea seedlings are infected with Aphis craccivora and sprayed with a spray liquor containing 100 ppm active substance and incubated at 20° C. 3 and 6 days later, the percentage reduction in the population (% activity) is determined by comparing the number of dead aphids on the treated and untreated plants.
# Cercospora arachidicola = assay: Residual protective activity against Cercospora arachidicola in peanuts; assay type: in vivo; details: peanut plants sprayed with 0.02% active substance, infected 48 hours later, evaluated 12 days after infection (number and size of leaf spots)
# Method: Peanut plants 10 to 15 cm high are sprayed to runoff with an aqueous spray liquor (0.02% active substance) prepared from a wettable powder of the active substance and 48 hours later are infected with a conidia suspension of the fungus. The plants are incubated at 21° C. and high atmospheric humidity for 72 hours and then placed in a greenhouse until the typical leaf spots appear. The activity of the active substance is evaluated 12 days after infection, on the basis of the number and size of leaf spots.
structure (smiles),measurement,setting,value
CO/N=C(/C(C)=N/OCc1ccccc1NC(=O)OC)c1ccc(F)cc1,melting point,,143 to 144 °C
"CCO/N=C(/C(C)=N/N=C/c1ccccc1N(C)C(=O)OC)c1ccc(Oc2ccc(C(F)(F)F)cc2)cc1 [Compound 1 from table a, Methyl N-methyl-[2-({2-ethoxyimino-1-methyl-2-[4-(4-trifluoromethylphenoxy)phenyl]ethylidene}hydrazonomethyl)phenyl]carbamate]",activity,Phytophthora infestans,more than 80%
same,activity,Venturia inaequalis,more than 80%
"CO/N=C(C)/C(C)=N/OCc1ccccc1NC(=O)OC [Compound 1 from table b, Methyl [2-(2-(E)-methoxyimino-1-methyl-(E)-propylideneaminooxymethyl)phenyl]carbamate]",melting point,,96.5 to 97.5 °C
"CCON=C(C(C)=NN=Cc1ccccc1N(COC)C(=O)OC)c1ccc(Oc2ccc(C(F)(F)F)cc2)cc1 [Compound 5 from table a, methyl N-methoxymethyl-[2-({2-ethoxyimino-1-methyl-2-[4-(4-trifluoromethylphenoxy)phenyl]ethylidene}hydrazonomethyl)phenyl]carbamate]","kill rate (% activity, reduction in population)",Aphis craccivora,more than 80%
"CCN(C(=O)OC)c1ccccc1CO/N=C(C)/C(C)=N/OC [Compound 7 from table b, Methyl N-ethyl-[2-(2-(E)-methoxyimino-1-methyl-(E)-propylideneaminooxymethyl)phenyl]carbamate]",activity,Cercospora arachidicola,more than 80%
same,melting point,,101 to 102 °C
